Test results published in PubChem BioAssay AID2286 (Southern Research Specialized Biocontainment Screening …, 2010).
Active and inactive are the calls of the source.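 How the source made its calls: active means minimum cell viability of 80% or lower across the dose range, counted as toxic; inactive means minimum cell viability above 80%.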

Assays:
[1] = MAGI-CCR5 and HeLa-R5-16 cytotoxicity, dose response, cytotoxicity control for HIV-1 fusion inhibitor project, cell-based, MAGI and MAGI-HeLa co-culture (AID 2286); conditions: MAGI-CCR5 cells viability, CellTiter-Glo ATP luminescence; for minimum viability: measured here: MAGI minimum viability across doses;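 on all read-outs here: cells exposed to compound for at least 64 h before ATP readout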;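 on minimum viability: 100% = median of DMSO vehicle wells with no ATP signal meaning 0%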;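 on viability: 100% = median of DMSO vehicle wells with no ATP signal meaning 0%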
[2] = system: MAGI-CCR5 cells viability, CellTiter-Glo ATP luminescence; test: as above
[3] = MAGI-HeLa co-culture viability, at 50 µM, stronger effect = lower value
[4] = measured here: MAGI + HeLa-R5-16 co-culture viability

| Compound | viability [1, 3] [%] | minimum viability ([1]; at 50 µM, stronger effect = lower value) [%] | CC50 [2] [µM] | CC50 [2, 4] [µM] | also measured |
| --- | --- | --- | --- | --- | --- |
| CC(C(=O)Nc1ccc(O)c(C(=O)O)c1)N1C(=O)/C(=C/c2cccs2)SC1=S (centres undefined) | 66.1 | 51.2 | 46.4 | > 50 |  |
| CCC(C)(C)C1CCc2c(sc(NC(=O)c3ccccc3C(=O)O)c2C#N)C1 (centres undefined) | 50.7 | 55.5 |  | > 50 |  |
| Nc1c(S(=O)(=O)O)cc(NC(=O)c2ccccc2)c2c1C(=O)c1ccccc1C2=O | 50.2 |  |  | 49.2 | viability ([1]; at 50 µM (top of the series)): 103% (inactive); minimum viability ([1]; at 25 µM, stronger effect = lower value): 89.2% |
| O=C(O)CN1C(=O)/C(=C\c2ccccc2OCc2ccc(Cl)cc2Cl)SC1=S | 67.5 | 84.5 |  | > 50 | viability ([1]; at 50 µM (top of the series)): 84.5% (inactive) |
| C=CC#CC[N+]1(CC#Cc2ccccc2)CCOCC1 | 70 | 76.2 |  | > 50 |  |
| O=[N+]([O-])c1cccc(S(=O)(=O)Nc2nc3ccccc3nc2Nc2cccc(S(=O)(=O)N3CCCCC3)c2)c1 | 20.4 | 19.9 | 7.22 | 14.1 |  |
| CCc1ccc(S(=O)(=O)/N=C2\C=C(NS(=O)(=O)c3ccccc3)C(=O)c3ccccc32)cc1 | 80 | 74.4 |  | > 50 |  |
| CCOc1cc(/C=N/N=C2/NC(=O)C(CC(=O)O)S2)ccc1OCc1ccc(Cl)cc1 (centres undefined) | 75.2 |  |  | > 50 | viability ([1]; at 50 µM (top of the series)): 101% (inactive); minimum viability ([1]; at 12.5 µM, stronger effect = lower value): 85.4% |
| CC1(c2ccccc2)CC(C)(C)N2C(=O)/C(=C3\SC(=S)NC3=O)c3cccc1c32 (centres undefined) | 40.9 | 22.5 | 14.1 | 37 |  |
| C/C(=N\Nc1ccc(C(=O)O)cc1)c1ccc2c(c1)Nc1ccccc1S2 | 52.7 | 47.2 | 46.2 | 26.2 |  |
| O=C(O)C1Nc2c(O)cccc2C2C=CCC12 (centres undefined) | 21.6 | 23 | 18.6 | 22.4 |  |
| CCOc1cc(/C=C2\C(=O)N(c3cccc(C(=O)O)c3)N=C2C(F)(F)F)ccc1OCC(=O)Nc1ccccc1OC | 51.6 |  |  | 47.3 | viability ([1]; at 25 µM (top of the series)): 88.7% (inactive); minimum viability ([1]; at 6.25 µM, stronger effect = lower value): 85.3% |
| CCCOc1cccc(C2C(C(=O)c3cc4ccccc4o3)=C(O)C(=O)N2c2cc(C)on2)c1 (centres undefined) | 90.1 | 49.1 | 49.8 |  |  |
| O=C(O)CN1C(=O)/C(=C\c2cc(Br)ccc2OCc2ccc(Cl)cc2Cl)SC1=S | 37.6 | 93.8 |  | 25.6 | viability ([1]; at 50 µM (top of the series)): 93.8% (inactive) |
| CCCCCCCCCCCCCCCCn1cc[n+](CC(C)=O)c1 | 3.56 | 2.77 | 1.36 | 2.09 |  |
| O=c1cc(-c2ccccc2)nc2c(-c3ccccc3)c(C(F)(F)F)[nH]n12 | 81.4 | 53.2 | 49.1 |  |  |
| CCc1oc2ccccc2c1C(=O)c1cc(Br)c(O)c(Br)c1 | 52.7 | 38.8 | 43.5 | > 50 |  |
| COc1cc(/C=C2\SC(=O)N(Cc3ccc(F)cc3)C2=O)cc([N+](=O)[O-])c1O | 65.7 | 41.9 | 28.7 | > 50 |  |

| Compound | viability [1, 3] [%] | minimum viability ([1]; at 50 µM, stronger effect = lower value) [%] | CC50 [2] [µM] | CC50 [2, 4] [µM] | also measured |
| --- | --- | --- | --- | --- | --- |
| O=C(O)c1cccc(NC(=S)N/N=C/c2ccccc2OCc2cccc(Br)c2)c1 | 28.4 | 9.27 | 22.3 | 23.9 |  |
| O=C(Nc1ccc(Oc2ccc(Cl)cc2)c(Cl)c1)c1cc(I)cc(I)c1O | 11.8 | 10.4 | 13.6 | 25.2 |  |
| COc1ccc(C(=O)/C=C/c2ccc(OCc3ccccc3)cc2)cc1CSCC(=O)O | 86.3 | 42.6 | 46 |  |  |
| O=C(O)c1ccccc1NC(=O)c1ccccc1Nc1ccccc1 | 58.2 | 47.6 | 42.7 | > 50 |  |
| CCS(=O)(=O)C1=NN2C(=N)/C(=C\c3ccc(OCCOc4cccc(OC)c4)c(OC)c3)C(=O)N=C2S1 | 50 | 83.7 |  | 40.1 | viability ([1]; at 50 µM (top of the series)): 83.7% (inactive) |
| O=C(O)C1Nc2ccc(Br)cc2C2C=CCC12 (centres undefined) | 74.1 |  |  | > 50 | viability ([1]; at 50 µM (top of the series)): 98% (inactive); minimum viability ([1]; at 0.2 µM, stronger effect = lower value): 90.6% |
| COc1ccc(-c2nn(-c3ccccc3)cc2/C=C2/SC(=S)N(CCCC(=O)O)C2=O)c(C)c1 | 68.8 | 57 |  | > 50 |  |
| COc1ccc(C(=O)/C=C/c2ccc(-c3ccccc3)cc2)cc1CSCC(=O)O | 5.69 | 3.11 | 13 | 23.2 |  |
| N#C/C(=C\c1ccc(O)c([N+](=O)[O-])c1)c1nc2ccccc2s1 | 41.9 | 21.9 | 11.7 | 43.8 |  |
| CN(C)S(=O)(=O)c1cccc(-c2nn(-c3ccccc3)cc2/C=C2\SC(=S)N(CC(=O)O)C2=O)c1 | 74.7 | 68.6 |  | > 50 |  |
| COc1ccc2c(c1)cc(C(=O)N/N=C/c1c(O)c(C(=O)O)cc3ccccc13)n2C | 75.1 |  |  | > 50 | viability ([1]; at 50 µM (top of the series)): 95.6% (inactive); minimum viability ([1]; at 1.56 µM, stronger effect = lower value): 89.5% |
| O=C(O)CN1C(=O)/C(=C\c2cc(Br)ccc2OCc2ccc([N+](=O)[O-])cc2)SC1=S | 24.7 | 69.8 |  | 19.9 |  |
| CCCCCC(=O)Cc1cc(O)cc2c1C(=O)Oc1cc(O)c(C(=O)O)c(CCCCC)c1O2 | 46.4 | 39.1 | 43.3 | 46.7 |  |
| COc1cc(/C=C2\SC(=O)N(Cc3ccc(Cl)cc3)C2=O)cc([N+](=O)[O-])c1O | 72.8 | 38.6 | 20.8 | > 50 |  |
| O=C1NC(=Nc2ccccc2Cl)S/C1=C\c1cccc([N+](=O)[O-])c1O | 73.6 | 72.6 |  | > 50 |  |
| Cc1ccc(C)c(S(=O)(=O)/N=C2\C=C(NS(=O)(=O)c3ccccc3)C(=O)c3ccccc32)c1 | 52.8 | 40.6 | 43.1 | > 50 |  |
| COc1cc([N+](=O)[O-])cc(/C=N/NC(=O)c2cc(-c3ccccc3)nc3ccccc23)c1O | 56.7 |  |  | > 50 | minimum viability ([1]; at 25 µM, stronger effect = lower value): 53.9% |
